This is an account of results in ChEMBL document CHEMBL1770148, “Dual function inhibitors of relevance to chronic obstructive pulmonary disease” (Bioorg Med Chem Lett, 2011).

SMILES strings stand for the structures. The source made the active and inactive calls. The rule behind the calls is not given here.

In test [1] the target is T1, Neutrophil elastase (Homo sapiens) (UniProt P08246).
T1 sequence (whole entry): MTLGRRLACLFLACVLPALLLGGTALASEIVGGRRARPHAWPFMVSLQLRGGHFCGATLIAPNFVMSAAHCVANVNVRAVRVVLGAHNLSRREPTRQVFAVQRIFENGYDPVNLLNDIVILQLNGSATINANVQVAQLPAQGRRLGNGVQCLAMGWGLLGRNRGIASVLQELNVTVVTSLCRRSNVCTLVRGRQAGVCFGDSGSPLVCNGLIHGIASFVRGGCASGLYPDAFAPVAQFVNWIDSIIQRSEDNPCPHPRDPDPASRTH
Kind of test: Inhibition of human neutrophil elastase assessed as remaining activity using MeOSuc-AAPV-pNA substrate at 10.5 uM. Particulars: TDE = time-dependent effect.

Test [2] deals with T2, Caspase-1 (Homo sapiens) (UniProt P29466).
T2 sequence (whole entry): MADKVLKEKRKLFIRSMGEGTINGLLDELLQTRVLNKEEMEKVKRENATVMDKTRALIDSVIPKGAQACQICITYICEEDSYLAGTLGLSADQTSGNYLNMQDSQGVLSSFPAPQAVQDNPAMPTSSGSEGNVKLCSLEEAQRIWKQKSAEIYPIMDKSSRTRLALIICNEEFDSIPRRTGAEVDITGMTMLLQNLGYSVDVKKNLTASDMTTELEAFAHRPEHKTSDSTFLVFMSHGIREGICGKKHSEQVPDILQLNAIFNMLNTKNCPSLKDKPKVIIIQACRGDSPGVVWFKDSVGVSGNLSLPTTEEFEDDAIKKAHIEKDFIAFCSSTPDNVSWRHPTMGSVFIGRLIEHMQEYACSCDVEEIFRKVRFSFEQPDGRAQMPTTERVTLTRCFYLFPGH
Kind of test: Inhibition of caspase 1 by Z-Asp-CH2DCB released from compound using […] substrate after 2 mins in presence of human neutrophil elastase.

The target of test [3] is T2, Caspase-1 (Homo sapiens). Put plainly: Inhibition of caspase 1 using […] substrate.
In test [4] the target is T3, Myeloblastin (Homo sapiens) (UniProt P24158).
T3 sequence (whole entry): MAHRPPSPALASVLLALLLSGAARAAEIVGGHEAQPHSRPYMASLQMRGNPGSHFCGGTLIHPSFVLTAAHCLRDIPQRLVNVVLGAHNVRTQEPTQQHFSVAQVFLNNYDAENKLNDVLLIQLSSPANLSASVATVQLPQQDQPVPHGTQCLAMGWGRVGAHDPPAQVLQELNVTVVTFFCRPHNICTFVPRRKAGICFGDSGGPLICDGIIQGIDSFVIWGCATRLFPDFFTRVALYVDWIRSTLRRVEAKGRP
Put plainly: Inhibition of proteinase 3 after 30 mins.

For the compound `CCC[C@H]1C(=O)N(COC(=O)C[C@H](NC(=O)OCc2ccccc2)C(=O)COC(=O)c2c(Cl)cccc2Cl)S(=O)(=O)N1C`, the inhibition result in test [1] was “tde”. For the same compound, the inhibition entry on Caspase-1 (Homo sapiens) [2] was “Active”. Moreover, the inhibition result (at Caspase-1 (Homo sapiens) [3]; in test [4]) was “inactive” in each case.
